Patent US20200008426A1, “ACTIVE COMPOUND COMBINATIONS” (BAYER AKTIENGESELLSCHAFT, priority 2017, published 2020)
Values joined by “and” are separate entries in the source; they are usually repeats but may differ in a detail not shown here. Equal entries are not always repeated. Where two headings read alike, the source gives them in different places.

Experiments:
Venturia inaequalis = assay: In vivo preventive test on Venturia (apples); settings: 10 days after inoculation
Protocol: The test is evaluated 10 days after the inoculation.

Pyrenophora teres = assay: In vitro-Test with Pyrenophora teres; assay type: cell-based
Phakopsora pachyrhizi = assay: In vivo preventive test on Phakopsora (soybeans); settings: Table C3, 7 days after inoculation
Septoria tritici [1] = assay: In vivo preventive Septoria tritici test (wheat); settings: 21 days after inoculation; for pest or weed control at 40 ppm: 40 ppm a.i.
Protocol: After the spray coating has been dried, the plants are sprayed with a spore suspension of Septoria tritici.
The test is evaluated 21 days after the inoculation.

Leptosphaeria nodorum = assay: In vivo preventive Leptosphaeria nodorum test (wheat); settings: Table G1, 8 days after inoculation
Protocol: After the spray coating has been dried, the plants are sprayed with a spore suspension of Leptosphaeria nodorum.
(§1) The test is evaluated 8 days after the inoculation.

Rhizoctonia solani = assay: In vitro-Test with Rhizoctonia solani; assay type: cell-based
Puccinia triticina = assay: In vivo preventive Puccinia triticina test (wheat); settings: 8 days after inoculation; for pest or weed control at 7.5 ppm: 7.5 ppm a.i.; for pest or weed control at 15 ppm: 15 ppm a.i.; for pest or weed control at 30 ppm: 30 ppm a.i.; for pest or weed control at 20 ppm: 20 ppm a.i.; for pest or weed control at 40 ppm: 40 ppm a.i.; for pest or weed control at 80 ppm: 80 ppm a.i.
Protocol: After the spray coating has been dried, the plants are sprayed with a spore suspension of Puccinia triticina.
as §1

Sphaerotheca fuliginea = assay: In vivo preventive test on Sphaerotheca (cucumbers); settings: 7 days after inoculation
Pyricularia oryzae = assay type: cell-based
[2] = In vivo ecotoxicity screening test on fish (Danio rerio); settings: Danio rerio, in vivo, other: exposure of embryos to the aqueous preparation
Protocol: (§2) with ECxi the Effect Concentration (EC) of each chemical i (in ppm) causing x % effect on the ecotoxicity test endpoint.
(§3) For each compound combination, the predicted ECx value is calculated. It is then compared to an experimentally measured value. The ratio of predicted versus measured effect for the combination (thereafter called the Model Deviation Ratio or MDR) is then calculated.
(§4) The environmental effect of the compound combinations was measured experimentally in laboratory ecotoxicity screening studies with fish (Danio rerio). […] Mortality was recorded after 96 h for each tested concentration and a reference control. […] Then, the MDR values were calculated.
(§5) • Solvent: 0.5% by weight dimethyl sulfoxide
(§6) This concentrate is then diluted with water to the desired a.i. concentration, leading to a maximal solvent concentration of 0.5% by weight. The compounds alone and the combinations were tested for five increasing concentrations between 0.01 and 1000 ppm a.i., (e.g. 0.1, 1.0, 10 and 100 ppm a.i). For the combinations, compounds A and B were mixed in a weight ratio of 5:1 to 1:5 and five increasing concentrations were tested for each ratio.

Ustilago avenae = assay: In vitro-Test with Ustilago avenae; assay type: cell-based; settings: compound alone
Alternaria alternata = assay: In vitro-Test with Alternaria alternata; assay type: cell-based
[3] = tested on: fish (Danio rerio) embryos; assay: In vivo ecotoxicity screening test on fish (Danio rerio); settings: active compound alone; fish embryos, 96 h, 28.5° C.
Protocol: as §2, §3, §4, §5, §6

Botrytis cinerea = assay: In vitro-Test with Botrytis cinerea; assay type: cell-based
Fusarium culmorum = assay: In vitro-Test with Fusarium culmorum; assay type: cell-based
Septoria tritici [4] = assay: In vitro-Test with Septoria tritici; assay type: cell-based; settings: compound alone
[5] = tested on: Blumeria graminis f.sp. hordei; assay: In vivo preventive Blumeria test (barley); settings: Table F2, 7 days after inoculation
[6] = Puccinia triticina, 192 h, read-out: Efficacy in % found
[7] = Puccinia triticina, 192 h, Table H1, read-out: Efficacy in % found
[8] = Zymoseptoria tritici, 504 h, read-out: Efficacy in % found

With mancozeb [Example 5.013] the “Efficacy in % found” value (Venturia inaequalis; Table E2, 12.5 ppm a.i.) was 0%, the “Efficacy in % found” value (Venturia inaequalis; Table E2, 25 ppm a.i.) was 18% and the “Efficacy in % found” value (Venturia inaequalis; Table E2, 50 ppm a.i.) was 95%. The Efficacy % (Pyrenophora teres; 20 ppm) was 81%, the Efficacy % (Pyrenophora teres; 100 ppm) was 83% and the “Efficacy in % found” value (Phakopsora pachyrhizi; 12.5 ppm a.i.) was 23%. The “Efficacy in % found” value (Phakopsora pachyrhizi; 25 ppm a.i.) was 45%, the “Efficacy in % found” value (Phakopsora pachyrhizi; 50 ppm a.i.) was 90% and the “Efficacy in % found” value (Septoria tritici [1]; 250 ppm a.i.) was 29%. For the same compound, the “Efficacy in % found” value (Septoria tritici [1]; 500 ppm a.i.) was 29%, the “Efficacy in % found” value (Septoria tritici [1]; 1000 ppm a.i.) was 29% and the “Efficacy in % found” value (Leptosphaeria nodorum; 250 ppm a.i.) was 14%. For the same compound, the “Efficacy in % found” value (Leptosphaeria nodorum; 500 ppm a.i.) was 14%, the “Efficacy in % found” value (Leptosphaeria nodorum; 1000 ppm a.i.) was 14% and the Efficacy % (Rhizoctonia solani; 4 ppm, compound alone) was 57%. It also gave an Efficacy % (Rhizoctonia solani; 20 ppm, compound alone) of 99%.
Work on CC(C)c1ccc(Cl)cc1CN(C(=O)c1c(C(F)F)nn(C)c1F)C1CC1 [Example 2.038, N-(5-chloro-2-isopropylbenzyl)-N-cyclopropyl-3-(difluoromethyl)-5-fluoro-1-methyl-1H-pyrazole-4-carboxamide] yielded a pest or weed control at 7.5 ppm (Puccinia triticina; [6]) of 22%, a pest or weed control at 15 ppm (Puccinia triticina; [6]) of 33% and a pest or weed control at 30 ppm (Puccinia triticina; [6]) of 44%. It also gave a pest or weed control at 7.5 ppm (Puccinia triticina; [7]) of 33%, a pest or weed control at 15 ppm (Puccinia triticina; [7]) of 33% and a pest or weed control at 30 ppm (Puccinia triticina; [7]) of 33%. The “Efficacy in % found” value (Sphaerotheca fuliginea; Table D3, 1 ppm a.i.) was 40%, the “Efficacy in % found” value (Sphaerotheca fuliginea; Table D3, 2 ppm a.i.) was 93% and the “Efficacy in % found” value (Sphaerotheca fuliginea; Table D3, 4 ppm a.i.) was 98%. The Efficacy % (Pyricularia oryzae; 0.8 ppm) was 0%, the Efficacy % (Pyricularia oryzae; 4 ppm) was 51% and the Efficacy % (Pyricularia oryzae; 20 ppm) was 75%. It also gave an LC50 at 96 h [2] of 1.74 µg/mL, an Efficacy % (Pyrenophora teres; 0.8 ppm) of 57% and an Efficacy % (Pyrenophora teres; 4 ppm) of 82%. It also gave an Efficacy % (Pyrenophora teres; 20 ppm) of 55%, an Efficacy % (Ustilago avenae; 0.8 ppm) of 43% and an Efficacy % (Ustilago avenae; 4 ppm) of 49%. For the same compound, the Efficacy % (Ustilago avenae; 20 ppm) was 52%.
Work on CC(O)(Cn1cncn1)c1ccc(Oc2ccc(Cl)cc2)nc1C(F)(F)F (centres unmarked) [I.01, 2-[6-(4-chlorophenoxy)-2-(trifluoromethyl)pyridin-3-yl]-1-(1H-1,2,4-triazol-1-yl)propan-2-ol] yielded a pest or weed control at 20 ppm (Puccinia triticina; [6]) of 30%, a pest or weed control at 40 ppm (Puccinia triticina; [6]) of 50% and a pest or weed control at 80 ppm (Puccinia triticina; [6]) of 60%. The LC50 at 96 h [2] was 6.21 µg/mL and the pest or weed control at 40 ppm (Septoria tritici [1]; [8]) was 63%.
With Cn1cc(C(=O)Nc2ccc(F)cc2-c2ccc(Cl)c(Cl)c2)c(C(F)F)n1 [Example 2.002, bixafen] the “Efficacy in % found” value (Puccinia triticina; Table H1, 25 ppm a.i.) was 22%, the “Efficacy in % found” value (Puccinia triticina; Table H1, 50 ppm a.i.) was 33% and the “Efficacy in % found” value (Puccinia triticina; Table H1, 100 ppm a.i.) was 67%. The Efficacy % (Alternaria alternata; 0.04 ppm) was 55%, the Efficacy % (Alternaria alternata; 0.2 ppm) was 84% and 57% and the Efficacy % (Alternaria alternata; 1 ppm) was 88%. For the same compound, the “Ecotoxicity LC50-96 h found” value [3] was 0.154 ppm a.i, the Efficacy % (Pyrenophora teres; 0.2 ppm) was 46% and the Efficacy % (Pyrenophora teres; 1 ppm) was 60%. It also gave an Efficacy % (Pyrenophora teres; 5 ppm) of 72%, an Efficacy % (Botrytis cinerea; 1 ppm) of 63% and an Efficacy % (Botrytis cinerea; 5 ppm) of 91%.
With CC(C)C1CCC(Cc2ccc(Cl)cc2)C1(O)Cn1cncn1 (centres unmarked) [Example 1.012, ipconazole] the pest or weed control at 20 ppm (Puccinia triticina; [6]) was 0%, the pest or weed control at 40 ppm (Puccinia triticina; [6]) was 44% and the pest or weed control at 80 ppm (Puccinia triticina; [6]) was 100%. It also gave a pest or weed control at 20 ppm (Puccinia triticina; [7]) of 0%, a pest or weed control at 40 ppm (Puccinia triticina; [7]) of 67% and a pest or weed control at 80 ppm (Puccinia triticina; [7]) of 89%. For the same compound, the “Efficacy in % found” value (Sphaerotheca fuliginea; Table D1, 2.5 ppm a.i.) was 26%, the “Efficacy in % found” value (Sphaerotheca fuliginea; Table D1, 5 ppm a.i.) was 87% and the “Efficacy in % found” value (Sphaerotheca fuliginea; Table D1, 10 ppm a.i.) was 100%. It also gave an Efficacy % (Fusarium culmorum; 0.04 ppm) of 7%, an Efficacy % (Fusarium culmorum; 0.2 ppm) of 13% and an Efficacy % (Fusarium culmorum; 1 ppm) of 96%. The Efficacy % (Fusarium culmorum; 5 ppm) was 99%, the “Ecotoxicity LC50-96 h found” value [3] was 6.57 ppm a.i and the pest or weed control at 20 ppm (Septoria tritici [1]; Zymoseptoria tritici, 504 h, 20 ppm a.i., read-out: Efficacy in % found) was 0%. It also gave a pest or weed control at 40 ppm (Septoria tritici [1]; [8]) of 0%, a pest or weed control at 80 ppm (Septoria tritici [1]; Zymoseptoria tritici, 504 h, 80 ppm a.i., read-out: Efficacy in % found) of 0% and an Efficacy % (Rhizoctonia solani; 0.04 ppm) of 35%. For the same compound, the Efficacy % (Rhizoctonia solani; 0.2 ppm) was 96%.
For CCCN(CC)CC1COC2(CCC(C(C)(C)C)CC2)O1 (centres unmarked) [Example 1.020, spiroxamine], the pest or weed control at 62.5 ppm (Puccinia triticina; Puccinia triticina, 192 h, 62.5 ppm a.i., read-out: Efficacy in % found) was 11%, the pest or weed control at 125 ppm (Puccinia triticina; Puccinia triticina, 192 h, 125 ppm a.i., read-out: Efficacy in % found) was 33% and the pest or weed control at 250 ppm (Puccinia triticina; Puccinia triticina, 192 h, 250 ppm a.i., read-out: Efficacy in % found) was 33%. The “Efficacy in % found” value (Sphaerotheca fuliginea; Table D1, 25 ppm a.i.) was 31%, the “Efficacy in % found” value (Sphaerotheca fuliginea; Table D1, 50 ppm a.i.) was 37% and the “Efficacy in % found” value (Sphaerotheca fuliginea; Table D1, 100 ppm a.i.) was 49%. The “Efficacy in % found” value (Venturia inaequalis; Table E1, 25 ppm a.i.) was 0%, the “Efficacy in % found” value (Venturia inaequalis; Table E1, 50 ppm a.i.) was 0% and the “Efficacy in % found” value (Venturia inaequalis; Table E1, 100 ppm a.i.) was 14%. For the same compound, the Efficacy % (Septoria tritici [4]; 0.8 ppm) was 25%, the Efficacy % (Septoria tritici [4]; 4 ppm) was 34% and the “Ecotoxicity LC50-96 h found” value [3] was 14.81 ppm a.i. It also gave a pest or weed control at 62.5 ppm (Septoria tritici [1]; Zymoseptoria tritici, 504 h, 62.5 ppm a.i., read-out: Efficacy in % found) of 0%, a pest or weed control at 125 ppm (Septoria tritici [1]; Zymoseptoria tritici, 504 h, 125 ppm a.i., read-out: Efficacy in % found) of 14% and a pest or weed control at 250 ppm (Septoria tritici [1]; Zymoseptoria tritici, 504 h, 250 ppm a.i., read-out: Efficacy in % found) of 57%. For the same compound, the Efficacy % (Ustilago avenae; 20 ppm) was 12%, the Efficacy % (Ustilago avenae; 100 ppm) was 100% and the Efficacy % (Botrytis cinerea; 4 ppm) was 7%. For the same compound, the Efficacy % (Botrytis cinerea; 20 ppm) was 9%, the “Efficacy in % found” value ([5]; 62.5 ppm a.i.) was 33% and the “Efficacy in % found” value ([5]; 125 ppm a.i.) was 89%. For the same compound, the “Efficacy in % found” value ([5]; 250 ppm a.i.) was 100%.
With OC(Cc1ccccc1Cl)(Cn1nc[nH]c1=S)C1(Cl)CC1 (centres unmarked) [Example 1.018, prothioconazole] the “Efficacy in % found” value (Puccinia triticina; 25 ppm a.i.) was 0%, the “Efficacy in % found” value (Puccinia triticina; 50 ppm a.i.) was 0% and the “Efficacy in % found” value (Puccinia triticina; 100 ppm a.i.) was 0%. The “Efficacy in % found” value (Puccinia triticina; Table H1, 25 ppm a.i.) was 0%, the “Efficacy in % found” value (Puccinia triticina; Table H1, 50 ppm a.i.) was 0% and the “Efficacy in % found” value (Puccinia triticina; Table H1, 100 ppm a.i.) was 0%. The “Efficacy in % found” value (Sphaerotheca fuliginea; Table D1, 2.5 ppm a.i.) was 71%, the “Efficacy in % found” value (Sphaerotheca fuliginea; Table D1, 5 ppm a.i.) was 96% and the “Efficacy in % found” value (Sphaerotheca fuliginea; Table D1, 10 ppm a.i.) was 100%. The Efficacy % (Alternaria alternata; 0.04 ppm) was 0%, the Efficacy % (Alternaria alternata; 0.2 ppm) was 91% and the Efficacy % (Fusarium culmorum; 0.2 ppm) was 99%. For the same compound, the “Efficacy in % found” value (Venturia inaequalis; Table E1, 2.5 ppm a.i.) was 0%, the “Efficacy in % found” value (Venturia inaequalis; Table E1, 5 ppm a.i.) was 30% and the “Efficacy in % found” value (Venturia inaequalis; Table E1, 10 ppm a.i.) was 61%. The “Ecotoxicity LC50-96 h found” value [3] was 3.16 ppm a.i, the Efficacy % (Pyrenophora teres; 0.2 ppm) was 22% and the “Efficacy in % found” value (Septoria tritici [1]; 25 ppm a.i.) was 0%. For the same compound, the “Efficacy in % found” value (Septoria tritici [1]; 50 ppm a.i.) was 14%, the “Efficacy in % found” value (Septoria tritici [1]; 100 ppm a.i.) was 43% and the Efficacy % (Ustilago avenae; 1 ppm) was 85%. It also gave an Efficacy % (Ustilago avenae; 5 ppm) of 100%.
Work on CC(O)(Cn1cncn1)c1ccc(Oc2ccc(Br)cc2)nc1C(F)(F)F (centres unmarked) [I.59, 2-[6-(4-bromophenoxy)-2-(trifluoromethyl)pyridin-3-yl]-1-(1H-1,2,4-triazol-1-yl)propan-2-ol] yielded an LC50 at 96 h [2] of 6 µg/mL.
